Assay results as given in US4260806A, “Carbocyclic thromboxane A2 analogues” (priority 1979, dated 1981).
Where two headings read alike, the source gives them in different places.

Experiments:
[1] = system: blood platelet aggregation; conditions: literature; cited from earlier work
cat coronary arteries = assay: constriction of isolated perfused cat coronary arteries (perfusion pressure at constant flow); type: cell-based
Method: Thromboxane A2 analogues (up to 4 μl of a 2.5 mM solution in ethanol) were tested for their effects on cat coronary arteries continuously perfused with 10 ml Krebs-Henseleit solution as described below.
Cats of either sex (2.5-3.5 kg) were anesthetized with sodium pentobarbital (30 mg/kg) given intravenously. […] A 20-gauge stainless steel cannula was inserted into the right coronary artery via the coronary ostium. Distal to the cannula, approximately 1 cm of coronary artery was dissected free of surrounding tissue. The section of right coronary artery with the cannula in place was excised from the heart and immediately transferred to a constant flow perfusion apparatus.
The perfusion apparatus consists of a reservoir containing 20 ml of warm (37° C.) oxygenated (95% O2 +5% CO2) K-H solution which bathes the coronary artery and serves as recirculating perfusate. An increase in perfusion pressure signifies […]. Following an initial 1 hr. equilibrium period, vascular responsiveness was established by adding 25 mM KCl. […] Fresh K-H dilutions of stock thromboxane analog concentrations were added to the perfusate reservoir in 0.1-0.2 ml volumes. […] Constriction of the arteries was induced by addition of 15 or 30 nM 9,11-azo-prostaglandinendoperoxide (azo-PGH2), or 1 μM 9,11-methanoepoxy-PGH2.

[2] = system: human platelet-rich plasma; assay: platelet aggregation in citrated human platelet-rich plasma (aggregometer); type: cell-based
Method: Platelet aggregation was studied in an aggregometer (Chronolog Corp., Phila., PA) using 0.5 ml citrated human platelet-rich plasma at 35° C. One minute after addition of analogue (up to 2 μl of a 25 mM solution in ethanol) aggregation was initiated by addition of sodium arachidonate (0.3-0.5 mM), ADP (2 μM) collagen (1 μg/ml), epinephrine (50 μM), 9,11-azo-PGH2 (0.1-0.6 μM). The analogues were also tested for their effects on the inhibition of ADP-induced aggregation by 2 nM prostacyclin or 20 nM prostaglandin D2.

[3] = system: New Zealand white rabbits; assay: effect of CTA2 on intact anesthetized rabbits; type: in vivo, rabbit
Method: To study the effect of CTA2 on intact animals, New Zealand white rabbits 2-3.5 kg were anesthetized with pentobarbital sodium (25 mg/kg) and placed in the supine position. The right femoral and external jugular veins and the left common carotid artery were cannulated with polyethylene catheters. Standard limb needle electrodes were placed subcutaneously for recording the electrocardiogram (ECG). The trachea was cannulated with a glass tube connected to a pressure transducer for the recording of airway pressure. Mean arterial blood pressure (MABP), central venous pressure (CVP), airway pressure, and lead III of the ECG were continuously recorded on a Grass Model 7 oscillographic recorder. Sodium arachidonate (95% pure, Sigma Chamical) at 2.0 mg/kg or CTA2 (125 μg/kg) were injected into the […], and the rabbit observed until death. Two ml blood samples were drawn into 25 mM EDTA just prior to injection of drug and just prior to death for radio-immunoassay of thromboxane B2.

[4] = system: formation of thromboxane B2; assay: formation of thromboxane B2
coronary artery = conditions: normal and high concentrations; literature; cited from earlier work
[5] = cited from earlier work

For `CCCCCC/C=C/C1C2CC(ON2)C1C/C=C\CCCC(=O)O` (stereo not drawn) [15-deoxy-9,11-epoxyimino-PGH2], the “effect on platelet aggregation” value [1] is listed as “inhibits platelet aggregation”.
For `CCCCCC/C=C/C1C2CC(N=N2)C1C/C=C\CCCC(=O)O` (stereo not drawn) [15-deoxy-9, 11-azo-PGH2], the “effect on platelet aggregation” value [1] is listed as “inhibits platelet aggregation”.
With `CCCCC[C@H](O)/C=C/C1CC2CC(C2)C1C/C=C\CCCC(=O)O` (stereo partly drawn) [CTA2, Carbocyclic Thromboxane A2, free acid] the “rank order of constrictor potency” value (cat coronary arteries; CTA2 vs azo-PGH2 >9,11-methanoepoxy-PGH2 >9,11 epoxymethano-PGH2 >>PGH2 >>Thromboxane B2) was “more potent a constrictor”, the “vasoconstricting potency compared with natural thromboxane A2” value (cat coronary arteries; cat coronary arteries) was “potencies comparable to those of the natural thromboxane A2” and the “antagonism of the coronary constrictor effects of 9,11-methanoepoxy PGH2” value (cat coronary arteries; concentrations up to 10^-7 M) was “did not antagonize”. The “constriction (increased perfusion pressure at constant flow)” value (cat coronary arteries; isolated perfused cat coronary arteries) was “dose-dependent constriction”, the “potency relative to 9,11-azo PGH2 (EC20)” value (cat coronary arteries; relative to 9,11-azo PGH2) was 4 times and the “potency relative to the other two PGH2 derivatives (EC20)” value (cat coronary arteries; relative to 9,11-methanoepoxy PGH2 and 9,11-epoxymethano PGH2) was 5-6 times. The “potency relative to TB2, by concentration giving a 20 mm Hg increase in coronary perfusion pressure (EC20)” value (cat coronary arteries; relative to TB2) was 10,000 times, the “inhibition of arachidonic acid induced platelet aggregation” value [2] was “potent inhibitor” and the “intrinsic ability to aggregate platelets” value [2] was “no intrinsic ability to agreggate plateletes”. For the same molecule, the “effect on arachidonic acid induced aggregation” value ([2]; 1-2 μM) was “delayed the onset of platelet aggregation without actually inhibiting the magnitude of the overall response”, the “inhibition of platelet aggregation to a variety of prostanoids” value ([2]; arachidonic acid, 9-11-azo PGH2, 9,11-methanoepoxy PGH2 and 9,11-epoxymethano PGH2) was “very potent inhibitor” and the “prevention of induced platelet aggregation” value ([2]; at 4 to 5 μM) was “completely prevented”. The “prevention of induced platelet aggregation” value ([2]; lower concentrations, 1 to 4 μM) was “only partially protective”, the “induction of platelet aggregation in vitro” value ([2]; up to concentrations of 100 μM) was “failed to induce platelet aggregation” and the “time of death after injection” value ([3]; anesthetized rabbit, 125 μg/kg intravenously, typical response) was “nine”. For the same molecule, the “sudden cardiac death in rabbits” value ([3]; severe myocardial ischemia without coronary thrombosis) was “induces sudden cardiac death” and the “inhibition of the formation of thromboxane B2” value [4] was “selectively inhibits”.
For `CCCCC[C@@H](O)/C=C/[C@H]1C[C@H]2C[C@@H]([C@@H]1C/C=C\CCCC(=O)O)C2(C)C` [PTA2, pinane thromboxane A2, reference compound], the “antagonism of the coronary constrictor effects of CTA2” value (cat coronary arteries) is listed as “almost completely antagonized” and the “effect on coronary artery contraction” value (coronary artery) is listed as “inhibits coronary artery contraction”.
In the case of `CCCCC[C@H](O)/C=C/[C@H]1O[C@H]2C[C@H](O2)[C@@H]1C/C=C\CCCC(=O)O` [TA2, thromboxane A2], the half-life ([5]; pH 7.4 and 37° C.) is listed as 30 s.
In the case of `CCCCC[C@H](O)/C=C/[C@@H]1[C@H]2C/C(=C/CCCC(=O)O)O[C@H]2C[C@H]1O` [prostacyclin, 6,9 α-oxido-11α, 15 α-dihydroxyprosta (Z), 5, E (13)-dienoic acid], the “effect on platelet aggregation” value [1] is listed as “most potent inhibitor of blood platelet aggregation” and the half-life ([5]; physiological conditions) is listed as “about 2 minutes”.
